Assay results taken from the supplement of paper PMC10307832.

Tests used:
Test in all cases: relative viability (nuclei count vs DMSO), 5 days (fraction); higher = more cells survive
[1] = compound: COc1cc2ncn(-c3cc(OCc4ccccc4C(F)(F)F)c(C(N)=O)s3)c2cc1OC + CS(=O)(=O)CCNCc1ccc(-c2ccc3ncnc(Nc4ccc(OCc5cccc(F)c5)c(Cl)c4)c3c2)o1 [Lapatinib] (partner 2 µM)
Summary of the method: (§1)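 Lung cancer cell lines in 1536-well plates got either a single drug or a fixed anchor-drug dose together with five library-drug doses (not always all listed) in √10 steps, by pin tool, on the day after seeding. Nuclei were counted after 5 days, and relative viability is the treated-to-vehicle ratio of nuclei counts. Values are medians of duplicate plates.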

[2] = compound: COc1cc2ncn(-c3cc(OCc4ccccc4C(F)(F)F)c(C(N)=O)s3)c2cc1OC + Nc1ncn([C@H]2C[C@H](O)[C@@H](CO)O2)c(=O)n1 [Decitabine] (partner 2 µM)
Summary of the method: as §1

[3] = compound: COc1cc2ncn(-c3cc(OCc4ccccc4C(F)(F)F)c(C(N)=O)s3)c2cc1OC + CC(C)C[C@H](NC(=O)[C@H](Cc1ccccc1)NC(=O)c1cnccn1)B(O)O [Bortezomib] (partner 0.002 µM)
Summary of the method: as §1

[4] = compound: COc1cc2ncn(-c3cc(OCc4ccccc4C(F)(F)F)c(C(N)=O)s3)c2cc1OC + NC(=O)Nc1cc(-c2cccc(F)c2)sc1C(=O)N[C@H]1CCCNC1 [AZD7762] (partner 0.2 µM)
Summary of the method: as §1

Cell Line | relative viability ([1]; first compound 0.05 µM) | relative viability ([1]; first compound 0.1581 µM) | relative viability ([1]; first compound 0.5 µM) | relative viability ([1]; first compound 1.581 µM) | relative viability ([1]; first compound 5 µM) | relative viability ([2]; first compound 0.05 µM) | relative viability ([2]; first compound 0.1581 µM) | relative viability ([2]; first compound 0.5 µM) | relative viability ([2]; first compound 1.581 µM) | relative viability ([2]; first compound 5 µM) | relative viability ([3]; first compound 0.05 µM) | relative viability ([3]; first compound 0.1581 µM) | relative viability ([3]; first compound 0.5 µM) | relative viability ([3]; first compound 1.581 µM) | relative viability ([3]; first compound 5 µM) | relative viability ([4]; first compound 0.05 µM) | relative viability ([4]; first compound 0.1581 µM) | relative viability ([4]; first compound 0.5 µM) | relative viability ([4]; first compound 1.581 µM) | relative viability ([4]; first compound 5 µM)
NCI-H3122 | 1.04 | 0.58 | 0.479 | 0.224 | 0.244 | 0.373 | 0.426 | 0.193 | 0.14 | 0.103 | 1.05 | 0.951 | 0.709 | 0.183 | 0.227 | 1.07 | 0.81 | 0.359 | 0.133 | 0.144
PC-3 [JPC-3] | 0.443 | 0.508 | 0.37 | 0.227 | 0.263 | 0.779 | 0.842 | 0.653 | 0.396 | 0.43 | 0.863 | 0.803 | 0.775 | 0.285 | 0.231 | 0.833 | 0.741 | 0.597 | 0.238 | 0.252
PC-14 | 0.33 | 0.353 | 0.318 | – | 0.278 | 0.272 | 0.195 | 0.141 | 0.0475 | 0.0694 | 0.723 | 0.794 | 0.404 | 0.0771 | 0.0641 | 0.371 | 0.405 | 0.334 | 0.113 | 0.0718
RERF-LC-KJ | 0.939 | 0.987 | 0.839 | – | 0.689 | 0.802 | 0.633 | 0.27 | 0.198 | 0.25 | 1.14 | 1.12 | 0.67 | 0.357 | 0.558 | 1.01 | 1.59 | 0.849 | 0.761 | 0.814
